{"source": "patent US7528175B2", "about": "“Method of treating airway diseases with beta-adrenergic inverse agonists” (Inverseon, Inc., priority 2005, dated 2009)", "key": {"[1]": {"test_system": "asthmatic mice", "assay": "BALF cell number and type (Example 11)", "format": "in vivo", "details": "vs nontreated asthmatic mice", "source_text": "The same mice as described in Example 1 underwent bronchoalveolar lavage (BAL) to determine the total number and type of immune system cells in the lung. BAL Fluid (BALF) was irrigated and collected from the lungs of mice as previously described (Evans K L, Bond R A, Corry […]. Frequency dependence of respiratory system mechanics during induced constriction in a murine model of asthma. J Appl Physiol. 2003 January;94(1):245-52). […] The number of neutrophils was increased in nontreated asthmatic mice compared to mice that served as controls for chronic beta-blocker treatments. In comparison to their notable effects on airway responsiveness, the β-AR ligands tested had very little effect on BALF cellularity. […] FIG. 12 has 3 panels of cell number and type of cells from the bronchoalveolar lavage fluid of asthmatic mice treated acutely or chronically with beta adrenergic ligands. Cells were identified as eosinophils (black bars), macrophages (hatched bars), neutrophils (grey bars), and lymphocytes (white bars) by standard morphologic criteria. At least 200 cells were counted per cytospin preparation, and the absolute number of each cell type was calculated based on the volume of fluid recovered from the lavage. […] Data are expressed as mean ±SEM and are representative of 6-25 animals per group. #P<0.05 compared to NTX, *P<0.05 compared to control (ANOVA)."}, "[2]": {"test_system": "adults with mild asthma", "text": "Study Design: The study is an open-label Phase IIa, proof of principle, 11-week, dose escalation study in mild asthma. Up to twelve subjects with mild asthma, not taking inhaled corticosteroids or other controller medications are to be recruited from a single clinical research center. […] Combivent rescue medication was provided to subjects during the run-in period to replace their own rescue medication which typically is Albuterol (salbutamol a beta 2 partial agonist).\nThe subjects are maintained at their maximum tolerated dose for a minimum of 4 weeks.\nAll the following criteria had to be met for dose escalation otherwise the dose was kept at maintenance level (same dose), reduced to previous lower tolerated dose or the subject was terminated from the study.\nData collected at baseline and during study visits include lung function (spirometry—FEV1 and daily peak flow rates —PEFR), asthma symptoms via dairy cards), heart rate and blood pressure. In addition, airway hyper-responsiveness (methacholine challenge test—PC20) and Asthma Control Questionaire (Juniper ACQ) will be performed. Blood is collected to monitor beta adrenergic receptor levels in lymphocytes and baseline laboratory evaluation."}}}
{"smiles": "CC(C)(C)NCC(O)COc1cccc2c1CC(O)C(O)C2", "note": "(stereo not drawn) [nadolol]", "values": [{"measurement": "BALF cellularity", "setting": "[1]; acute treatment (15 minutes)", "result": "significant elevations in the number of neutrophils"}, {"measurement": "BALF cellularity", "setting": "[1]; chronic treatment (28 days)", "result": "significant elevations in the number of neutrophils"}, {"measurement": "ACQ Score Δ", "setting": "[2]; Asthma Control Questionnaire, absolute change from baseline, per subject", "result": "results were mixed"}, {"measurement": "PEFR % Change baseline", "setting": "[2]; average last 14 days of treatment vs last 14 days of run-in, per subject", "result": "essentially no effect"}, {"measurement": "subjects with reduction in airway twitchiness (increased PC20)", "setting": "[2]; chronic nadolol", "result": "4 of 5"}, {"measurement": "subjects with PC20 doubling doses within the 1.5 limit", "setting": "[2]; chronic nadolol, 5 subjects", "result": "Two subjects"}, {"measurement": "subjects with increases of doubling doses greater than 1.5", "setting": "[2]; chronic nadolol, 5 subjects", "result": 3, "unit": "subjects"}, {"measurement": "PC20 Doubling Dose", "setting": "[2]; methacholine PC20 change from baseline at the end of the trial, per subject", "result": "more pronounced effect on airway hyper-responsiveness"}, {"measurement": "Puffs/Day Mean Change per Day", "setting": "[2]; rescue medication use, absolute change from baseline, per subject", "result": "results were mixed"}]}
